Patent US11065231B2, “Compounds and methods for the targeted degradation of interleukin-1 receptor- associated kinase 4 polypeptides” (Arvinas Operations, Inc., priority 2017, dated 2021)
pIC50: −log10 of the molar value. Like-named read-outs stand apart in the source and are kept apart here.

What was measured:
IRAK4 [1] = target: T1, IRAK4 (Homo sapiens (Human), UniProt Q9NWZ3); test: Western blot assay for assessing degradation of IRAK4 in MCF7 cells; type: cell-based; details: for Dmax: read-out: IRAK4 Dmax (%)
Method: Western Blot Assay for Assessing Degradation of IRAK4.
MCF7 cells, purchased from ATCC (Manassas, Va.), were used at a passage range of 2-19. Cells were seeded at 50% confluency in 96-well plates at 180 μl/well in cell media (Dulbecco's Modified Eagle medium/nutrient F-12 Ham-10% Fetal Bovine Serum) and incubated overnight. The next morning, compounds were serially diluted and added (20 μl into 180 μl media) at a final DMSO concentration of 0.1%. Cells were rinsed with cell media and replaced with compounds in media, followed by incubation overnight. After a 24 hour incubation with compound, cell were harvested (90-100% confluent at harvest). Cells were then washed once with 100 μl of Dulbecco's hosphate-buffered saline and then lysed with 40 μl of lysis buffer (1×RIPA+HALT protease inhibitor+HALT phosphatase inhibitor) on ice for 10 minutes. Lysates were then cleaned by filtration in 1.2 µm filter plates followed by western blotting. For each sample, 30 μl of lysate were added to 10 μl of 4×LDS sample buffer, then denatured at 95° C. for 5 minutes in the thermal cycler and placed on ice. Fifteen μL of each sample were then loaded on 4-15% Tris/Glycine gels and run for 25 minutes at 250 (constant) volts in 1× Tris/Glycine buffer. Protein was transferred from gels to nitrocellulose using a BioRad Turbo dry-transfer unit with the Turbo/midi default program. All blots were rinsed with ddH2O and blocked for 1 hour at room temperature in 5% bovine serum albumin (BSA) in tris-buffered saline-Tween 20 (TBS-T) (0.1%) on rocker. Blots were exposed to primary antibody in 5% BSA in TBS-T (0.1%) overnight at 4° C. on rocker. Primary antibodies, diluted 1:1000 in […], were as follows: anti-IRAK4 (cat. #: ab119942, Abcam, Cambridge, Mass.), anti-IRAK1 (cat. #: CST 4504S, Cell Signaling Technology, Danvers, Mass.), and anti-Beta-actin (Cat. #: ab8227, Abcam, Cambridge, Mass.). Blots were then washed with TBS-T (0.1%) three times for 5 minutes on a rocker at room temperature. Secondary antibody (1:18,000 anti-rabbit-HRP and/or anti-mouse-HRP in 5% BSA in TBST (0.1%) was then added, and blots incubated at room temperature rocker for 1 hour. Blots were washed 3 times in TBS-T (0.1%) for 5 minutes at room temperature on the rocker. Signal was developed with Femto Max substrate for 5 minutes and blots read on a ChemiDoc. Percent degradation was assessed by comparing IRAK4 signal in compound vs. DMSO treated lysates.

IRAK4 [2] = target: T1, IRAK4; test: Biochemical Z'-Lyte FRET assay for IRAK4 kinase inhibition; details: 2 nM enzyme, 1 mM ATP, 2 μM substrate
Method: Biochemical Assay for IRAK4 Kinase Inhibition.
A Z′-Lyte assay based on a fluorescence resonance energy transfer (FRET) readout was developed for measuring IRAK4-dependent phosphorylation of a FRET-peptide substrate as described by Thermo Fisher Scientific (Grand Island, N.Y.). At a starting concentration of 1.5 mM, the identified compounds were serially diluted with 100% dimethyl sulfoxide (DMSO) in 3-fold increments, into Greiner bio-one 96-well plates (cat. #: 650201, Greiner bio-one, Monroe, N.C.). Compounds were then transferred to intermediate Greiner bio-one 96-well plates and diluted 10-fold with Kinase assay buffer (25 mM HEPES, pH 7.5, 10 mM MgCl2, 10 mM MnCl2, 1 mM EGTA, and 0.01% Brij-35, 2 mM DTT). Three μL of the serially diluted compounds were then transferred in duplicate to low-volume 384-well black proxiplates (cat. #: 6008269; Perkin Elmer, Akron, Ohio), to give duplicate twelve-point concentration curves. Six μl of a 2.5× solution of IRAK4 enzyme (cat #: 40064, BPS Bioscience, San Diego, Calif.) in kinase buffer was added to each well, followed by a 10 minutes pre-incubation step. Reactions were initiated by adding 6 μl of a 2.5× substrate mix of ATP and Z′-Lyte Ser/Thr 7 peptide (cat. #: PV3180, Thermo Fisher Scientific, Grand Island, N.Y.) and proceeded at room temperature for 1 hour. The final concentration of key reagents in the 15 uL kinase reactions were 2 μM substrate, 2 nM enzyme, and 1 mM ATP, with dose responses starting at 30 μM compound. At the end of the kinase reactions, 5 μl of developing solution (as instructed in for cat. #: PV3180, Thermo Fisher Scientific, Grand Island, N.Y.) was added to each well and incubated at room temperature for 1 hour. All wells were read on an Envision 2105 Multilabel fluorescence plate reader (Perkin Elmer, Waltham, Mass.) at 400 nm excitation and 460 nm/530 nm emission. Plus and minus 100% inhibition controls were used to calculate percent inhibition and IC50 curves were generated using Graphpad Prism (La Jolla, Calif.).

[3] = Table 5, IRAK4 degradation, 24 hour incubation, read-out: IRAK4 DC50
[4] = Table 5, IRAK4 degradation, 24 hour incubation

T1 sequence (Q9NWZ3 whole entry): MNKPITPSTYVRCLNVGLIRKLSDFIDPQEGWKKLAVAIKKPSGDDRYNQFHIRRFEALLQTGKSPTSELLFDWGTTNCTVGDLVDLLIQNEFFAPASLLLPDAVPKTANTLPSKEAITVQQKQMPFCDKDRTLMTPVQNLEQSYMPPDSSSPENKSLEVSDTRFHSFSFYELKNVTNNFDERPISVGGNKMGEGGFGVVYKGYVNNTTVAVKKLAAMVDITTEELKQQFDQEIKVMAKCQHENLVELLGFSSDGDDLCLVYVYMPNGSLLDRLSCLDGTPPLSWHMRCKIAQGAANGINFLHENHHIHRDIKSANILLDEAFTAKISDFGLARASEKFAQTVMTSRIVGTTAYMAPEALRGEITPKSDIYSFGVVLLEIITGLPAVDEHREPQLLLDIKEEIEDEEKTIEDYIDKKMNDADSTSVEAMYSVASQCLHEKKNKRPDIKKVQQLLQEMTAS

SMILES | DC50 (IRAK4 [1]; [3]) [nM] | pIC50 (IRAK4 [2]) | DC50 (IRAK4 [1]; Table 1, 24 hours, read-out: IRAK4 by western DC50) [nM] | DC50 (IRAK4 [1]; western blot, 24 hour incubation, read-out: DC50 (IRAK4 degradation)) [nM] | Dmax (IRAK4 [1]; [4]) [%]
Cc1ncsc1-c1ccc(CNC(=O)[C@@H]2C[C@@H](O)CN2C(=O)[C@@H](NC(=O)COCCOCCOCCOCCN2CCN(Cc3ccc4c(c3)nc(NC(=O)c3cccc(C(F)(F)F)c3)n4C3CCC(CO)CC3)CC2)C(C)(C)C)cc1 (mixture of isomers) [compound 14, (2S,4R)-1-((S)-2-(tert-butyl)-17-(4-((1-((1SR,4SR)-4-(hydroxymethyl)cyclohexyl)-2-(3-(trifluoromethyl)benzamido)-1H-benzo[d]imidazol-5-yl)methyl)piperazin-1-yl)-4-oxo-6,9,12-tetraoxa-3-azatetradecanoyl)-4-hydroxy-N-(4-(4-methylthiazol-5-yl)benzyl)pyrrolidine-2-carboxamide] | ≥ 1000 | > 7.52 |  |  | 
O=C1CCC(N2C(=O)c3ccc(OCCOCCN4CCN(Cc5ccc6c(c5)nc(NC(=O)c5cccc(C(F)(F)F)c5)n6[C@H]5CC[C@@H](CO)CC5)CC4)cc3C2=O)C(=O)N1 (some centres unmarked) [compound 2, N-(5-((4-(2-(2-((2-(2,6-dioxopiperidin-3-yl)-1,3-dioxoisoindolin-5-yl)oxy)ethoxy)ethyl)piperazin-1-yl)methyl)-1-((1s,4s)-4-(hydroxymethyl)cyclohexyl)-1H-benzo[d]imidazol-2-yl)-3-(trifluoromethyl)benzamide] | < 30 | > 7.52 | 10 | 9.7 | 
O=C1CCC(N2Cc3cc(OCCOCCN4CCN(Cc5ccc6c(c5)nc(NC(=O)c5cccc(C(F)(F)F)c5)n6[C@H]5CC[C@@H](CO)CC5)CC4)ccc3C2=O)C(=O)N1 (some centres unmarked) [compound 6, N-(5-((4-(2-(2-((2-(2,6-dioxopiperidin-3-yl)-1-oxoisoindolin-5-yl)oxy)ethoxy)ethyl)piperazin-1-yl)methyl)-1-((1s,4s)-4-(hydroxymethyl)cyclohexyl)-1H-benzo[d]imidazol-2-yl)-3-(trifluoromethyl)benzamide] | ≥ 1000 | > 7.52 |  |  | 
O=C1CCC(N2C(=O)c3ccc(N4CCC(CN5CCN(Cc6ccc7c(c6)nc(NC(=O)c6cccc(C(F)(F)F)c6)n7[C@H]6CC[C@@H](CO)CC6)CC5)CC4)cc3C2=O)C(=O)N1 (some centres unmarked) [compound 9, N-(5-((4-((1-(2-(2,6-dioxopiperidin-3-yl)-1,3-dioxoisoindolin-5-yl)piperazin-4-yl)methyl)piperzin-1-yl)methyl)-1-((1s,4s)-4-(hydroxymethyl)cyclohexyl)-1H-benzo[d]imidazol-2-yl)-3-(trifluoromethyl)benzamide] | < 30 | > 7.52 |  |  | > 70
Cc1ccc(-n2nc(N3CCN(CCOCCOCCOc4ccc5c(c4)C(=O)N(C4CCC(=O)NC4=O)C5=O)CC3)cc2NC(=O)c2cnn3cccnc23)nc1 (centres unmarked) [compound 25, N-(3-(4-(2-(2-(2-((2-(2,6-dioxopiperidin-3-yl)-1,3-dioxoisoindolin-5-yl)oxy)ethoxy)ethoxy)ethyl)piperazin-1-yl)-1-(5-methylpyridin-2-yl)-1H-pyrazol-5-yl)pyrazolo[1,5-a]pyrimidine-3-caboxamide] | ≥ 1000 | 7.00 to 7.52 |  |  | 
Cc1ccc(-n2nc(N3CCN(CCOCCOCCOCC(=O)N[C@H](C(=O)N4C[C@H](O)C[C@H]4C(=O)NCc4ccc(-c5scnc5C)cc4)C(C)(C)C)CC3)cc2NC(=O)c2cnn3cccnc23)nc1 [compound 27, N-(3-(4-((S)-13-((2S,4R)-4-hydroxy-2-((4-(4-methylthiazol-5-yl)benzyl)carbamoyl)pyrrolidine-1-carbonyl)-14,14-dimethyl-11-oxo-3,6,9-trioxa-12-azapentadecyl)piperazin-1-yl)-1-(5-methylpyridin-2-yl)-1H-pyrazol-5-yl)pyrazolo[1,5-a]pyrimidine-3-carboxamide] | ≥ 1000 | 6.00 to 6.52 |  |  | 
Cc1ccc(-n2nc(N3CCN(CCOCCOCCOCCOCC(=O)N[C@H](C(=O)N4C[C@H](O)C[C@H]4C(=O)NCc4ccc(-c5scnc5C)cc4)C(C)(C)C)CC3)cc2NC(=O)c2cnn3cccnc23)nc1 [compound 28, N-(3-(4-((S)-16-((2S,4R)-4-hydroxy-2-((4-(4-methylthiazol-5-yl)benzyl)carbamoyl)pyrrolidine-1-carbonyl)-17,17-dimethyl-14-oxo-3,6,9,12-tetraoxa-15-azapentadecyl)piperazin-1-yl)-1-(5-methylpyridin-2-yl)-1H-pyrazol-5-yl)pyrazolo[1,5-a]pyrimidine-3-carboxamide] | ≥ 1000 | 6.00 to 6.52 |  |  | 
N#Cc1ccc2ncnc(N[C@H]3CC[C@H](N4CCN(CCOc5ccc6c(c5)C(=O)N(C5CCC(=O)NC5=O)C6=O)CC4)CC3)c2c1 (some centres unmarked) [compound 29] | ≥ 1000 | 6.00 to 6.52 |  |  | 
N#Cc1ccc2ncnc(N[C@H]3CC[C@H](N4CCN(CCOCCOc5ccc6c(c5)C(=O)N(C5CCC(=O)NC5=O)C6=O)CC4)CC3)c2c1 (some centres unmarked) [compound 30] | ≥ 1000 | 6.00 to 6.52 |  |  | 

The remaining lines, values ahead:

DC50 (IRAK4 [1]; [3]) [nM] | pIC50 (IRAK4 [2]) | DC50 (IRAK4 [1]; Table 1, 24 hours, read-out: IRAK4 by western DC50) [nM] | DC50 (IRAK4 [1]; western blot, 24 hour incubation, read-out: DC50 (IRAK4 degradation)) [nM] | Dmax (IRAK4 [1]; [4]) [%] | SMILES
100 to 300 | > 7.52 |  |  |  | O=C1CCC(N2C(=O)c3ccc(OCCN4CCN(Cc5ccc6c(c5)nc(NC(=O)c5cccc(C(F)(F)F)c5)n6[C@H]5CC[C@@H](CO)CC5)CC4)cc3C2=O)C(=O)N1 (some centres unmarked) [compound 1, N-(5-((4-(2-((2-(2,6-dioxopiperidin-3-yl)-1,3-dioxoisoindolin-5-yl)oxy)ethyl)piperazin-1-yl)methyl)-1-((1s,4s)-4-(hydroxymethyl)cyclohexyl)-1H-benzo[d]imidazol-2-yl)-3-(trifluoromethyl)benzamide]
≥ 1000 | 6.52 to 7.00 |  |  | 30 to 50 | CC1CCC(n2c(NC(=O)c3cccc(C(F)(F)F)c3)nc3cc(CN4CCN(CCOCCOc5ccc6c(c5)C(=O)N(C5CCC(=O)NC5=O)C6=O)CC4)ccc32)CC1 (centres unmarked) [compound 7, N-(5-((4-(2-(2-((2-(2,6-dioxopiperidin-3-yl)-1,3-dioxoisoindolin-5-yl)oxy)ethoxy)ethyl)piperazin-1-yl)methyl)-1-((1s,4s)-4-methylcyclohexyl)-1H-benzo[d]imidazol-2-yl)-3-(trifluoromethyl)benzamide]
30 to 100 | > 7.52 |  |  |  | O=C1CCC(N2C(=O)c3ccc(OCCN4CCC(CN5CCN(Cc6ccc7c(c6)nc(NC(=O)c6cccc(C(F)(F)F)c6)n7[C@H]6CC[C@@H](CO)CC6)CC5)CC4)cc3C2=O)C(=O)N1 (some centres unmarked) [compound 10]
≥ 1000 | 6.00 to 6.52 |  |  |  | Cc1ccc(-n2nc(N3CCN(CCOCCOCCOCCOc4ccc5c(c4)C(=O)N(C4CCC(=O)NC4=O)C5=O)CC3)cc2NC(=O)c2cnn3cccnc23)nc1 (centres unmarked) [compound 26, N-(3-(4-(2-(2-(2-(2-((2-(2,6-dioxopiperidin-3-yl)-1,3-dioxoisoindolin-5-yl)oxy)ethoxy)ethoxy)ethoxy)ethyl)piperazin-1-yl)-1-(5-methylpyridin-2-yl)-1H-pyrazol-5-yl)pyrazolo[1,5-a]pyrimidine-3-caboxamide]
≥ 1000 | ≤ 6.00 |  |  |  | N#Cc1ccc2ncnc(N[C@H]3CC[C@H](N4CCN(CCOCCOCCOc5ccc6c(c5)C(=O)N(C5CCC(=O)NC5=O)C6=O)CC4)CC3)c2c1 (some centres unmarked) [compound 31]
